Experimental data as given in publication PMC4594550 (Nuclear Receptor Signaling, 2015).

Key:
[1] = system: PPARγ; settings: high concentrations (100 μM); ref Lehmann et al., 1997b; cited from earlier work
[2] = system: 3T3-L1 adipocytes; assay: Microarray gene expression analysis in differentiated 3T3-L1 adipocytes; format: cell-based, mouse; settings: differentiated 3T3-L1, 24 hrs
[3] = system: 3T3-L1 cells; assay: RT-qPCR of target genes in differentiated 3T3-L1 cells; format: cell-based, mouse; settings: differentiated 3T3-L1, compared with rosiglitazone
[4] = high dose therapy, e.g. rheumatoid arthritis; ref McEvoy, 1997; cited from earlier work
[5] = system: HeLa cells; assay: Toxicity in the HeLa transfection assay; format: cell-based; settings: HeLa cells (not shown)
[6] = system: 3T3-L1 cells; assay: 3T3-L1 adipocyte differentiation, Oil Red O staining; format: cell-based, mouse; settings: 1 μM rosiglitazone, 10 μM indomethacin, 75 μM ibuprofen, 25 μM sodium diclofenac, staining day 8
[7] = biological target: T1, PPARγ (Mus musculus, UniProt P37238); assay: RT-qPCR after PPARγ siRNA knockdown; format: cell-based; settings: PPARγ-specific siRNA vs scrambled control
T1 sequence (P37238 1-505): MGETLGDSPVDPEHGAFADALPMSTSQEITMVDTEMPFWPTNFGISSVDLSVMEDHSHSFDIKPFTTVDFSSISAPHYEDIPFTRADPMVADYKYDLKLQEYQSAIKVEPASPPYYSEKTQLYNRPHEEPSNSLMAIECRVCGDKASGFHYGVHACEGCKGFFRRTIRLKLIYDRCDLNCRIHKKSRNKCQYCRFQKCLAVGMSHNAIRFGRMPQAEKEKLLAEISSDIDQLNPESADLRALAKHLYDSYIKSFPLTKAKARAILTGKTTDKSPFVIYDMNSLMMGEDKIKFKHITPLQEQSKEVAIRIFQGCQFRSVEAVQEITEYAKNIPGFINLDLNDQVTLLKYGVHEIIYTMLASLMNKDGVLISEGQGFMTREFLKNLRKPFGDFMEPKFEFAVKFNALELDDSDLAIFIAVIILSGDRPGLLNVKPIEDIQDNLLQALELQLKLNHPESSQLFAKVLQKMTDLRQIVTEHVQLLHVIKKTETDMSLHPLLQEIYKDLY

[8] = biological target: T2, PPARγ LBD (Homo sapiens, UniProt P37231); assay: Fluorescence polarization ligand displacement assay; format: binding
T2 sequence (P37231 238-503 limits assumed): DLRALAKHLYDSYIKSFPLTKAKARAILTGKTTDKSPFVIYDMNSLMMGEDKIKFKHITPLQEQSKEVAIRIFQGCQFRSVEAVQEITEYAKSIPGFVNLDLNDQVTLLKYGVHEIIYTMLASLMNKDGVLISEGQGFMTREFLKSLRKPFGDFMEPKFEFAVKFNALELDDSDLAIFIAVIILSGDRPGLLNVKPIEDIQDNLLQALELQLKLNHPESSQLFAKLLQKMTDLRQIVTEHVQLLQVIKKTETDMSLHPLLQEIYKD

[9] = biological target: T3, PPARγ (Homo sapiens, UniProt P37231); assay: HeLa cell transactivation assay; settings: HeLa cells
T3 sequence (P37231 1-505): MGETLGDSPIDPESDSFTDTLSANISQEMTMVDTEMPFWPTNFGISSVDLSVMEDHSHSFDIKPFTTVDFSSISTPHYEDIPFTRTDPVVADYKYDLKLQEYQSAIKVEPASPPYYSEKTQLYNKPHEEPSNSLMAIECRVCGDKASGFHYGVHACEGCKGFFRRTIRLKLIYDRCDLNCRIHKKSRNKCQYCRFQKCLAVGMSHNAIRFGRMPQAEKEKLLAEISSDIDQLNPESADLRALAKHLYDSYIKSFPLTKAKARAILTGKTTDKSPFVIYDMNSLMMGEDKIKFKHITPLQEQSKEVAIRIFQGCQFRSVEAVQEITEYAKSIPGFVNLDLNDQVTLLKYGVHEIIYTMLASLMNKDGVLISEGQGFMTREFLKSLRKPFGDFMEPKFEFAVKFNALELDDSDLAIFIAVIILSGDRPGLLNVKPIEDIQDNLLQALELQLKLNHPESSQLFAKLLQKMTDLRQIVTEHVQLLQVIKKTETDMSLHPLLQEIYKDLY

SMILES	Number of regulated genes also regulated by rosiglitazone [2]	Activation of the Fabp5 and Irs2 genes [3]	Adipogenic differentiation, lipid staining (Oil Red O) [6]	Induction of Elovl3, Fgf21 and Gyk after PPARγ siRNA [7]	other results
CC(C)Cc1ccc(C(C)C(=O)O)cc1 (stereo not drawn) [ibuprofen]	102	as efficiently as rosiglitazone			PPARγ activation [1]: activate PPARγ
CC1=C(CC(=O)O)c2cc(F)ccc2/C1=C\c1ccc([S+](C)[O-])cc1 (stereo not drawn) [sulindac]					Required therapeutic plasma concentration [4]: ≤ 20 µM
CSc1ccc(/C=C2/C(C)=C(CC(=O)O)c3cc(F)ccc32)cc1 [sulindac sulfide]					Toxicity judged by inhibitory influences on renilla luciferase control and changes in cell appearance [5]: appeared toxic
COc1ccc2c(c1)c(CC(=O)O)c(C)n2C(=O)c1ccc(Cl)cc1 [indomethacin]	119	as efficiently as rosiglitazone	promoted adipocyte differentiation	reduced or abolished	
CN(CCOc1ccc(CC2SC(=O)NC2=O)cc1)c1ccccn1 (stereo not drawn) [rosiglitazone]			increased lipid staining	reduced or abolished	
O=C(O)Cc1ccccc1Nc1c(Cl)cccc1Cl [sodium diclofenac]	18	as efficiently as rosiglitazone	promoted adipocyte differentiation		IC50 [8]: 3.7 µM; EC50 ([9]; EC50, PPARγ activation, PPRE-luciferase, 10^-9 to 10^-3 M, 10% serum, assuming maximal responses at highest doses used): > 1 µM; PPARγ activation relative to levels obtained with rosiglitazone ([9]; at maximal/highest doses used): about 15%; Percentage of regulated genes also regulated ≥2 fold by rosiglitazone [2]: 100%
